Literature values as cited in US20050026813A1, “Antibiotic-metal complexes in the detection of gram-positive bacteria and other biological analytes” (priority 2003, published 2005).

How the values were obtained:
[1] = tested on: Bacillus subtilis ATCC 6633
[2] = tested on: Micrococcus luteus
[3] = tested on: Staph. aureus V573 MR
[4] = tested on: Streptococcus pyogenes CN10
[5] = tested on: S. aureus SR2030; details: S. aureus SR2030 in mice, s.c.
[6] = tested on: gram-positive bacteria; details: in words
[7] = tested on: Staphylococcus aureus SR14
[8] = tested on: Strep. faecalis I
[9] = tested on: Staphylococcus aureus Oxford
[10] = tested on: Staphylococcus aureus SG511
[11] = tested on: S. aureus 285
[12] = tested on: S. aureus 503
[13] = tested on: Streptococcus pyogenes 77A
[14] = tested on: anaerobes and gram-positive aerobes
[15] = tested on: Staphylococcus aureus 56; details: mice infected with Staphylococcus aureus 56
[16] = tested on: Mycobacterium smegmatis ATCC 607
[17] = tested on: S. aureus Sank 70175
[18] = tested on: Enterococcus faecalis subsp. Liquifaciens S-299
[19] = tested on: subcutaneous and urinary tract infections
[20] = tested on: Strep pneumoniae; details: systemic infections in mice
[21] = tested on: Staphylococcus aureus; details: systemic infections in mice
[22] = systemic infections in mice, Enterobacter faecalis
[23] = tested on: Streptococcus pyogenes; details: systemic infections in mice
[24] = tested on: laboratory strains of aerobic and anaerobic gram-positive bacteria
[25] = tested on: Bacillus subtilis
[26] = tested on: multi-drug resistant strains of Haemophilus influenzae and Moraxella catarrhalis

For CCCCCCCCCC(=O)NC1C(O[C@@H]2c3cc(Cl)c(c(Cl)c3)Oc3cc4cc(c3OC3OC(CO)C(O)C(O)C3O)Oc3ccc(cc3Cl)[C@@H](O)[C@H]3NC(=O)[C@H](NC)c5ccc(O)c(c5)Oc5cc(O)c(Cl)c(c5)C(NC3=O)C(=O)NC4C(=O)N[C@H]3C(=O)N[C@@H]2C(O)N[C@H](C(=O)O)c2cc(O)cc(O)c2-c2cc3cc(Cl)c2OC2OC(CO)C(O)C(O)C2O)OC(C(=O)O)C(O)C1O (stereo partly shown) [MM 55268], the MIC [1] is given as 2 microgram/ml, the MIC [2] is given as 2 microgram/ml and the MIC [3] is given as 1 microgram/ml. For the same molecule, the MIC [4] was 0.25 microgram/ml.

In the case of CNC(CC(C)C)C(=O)NC1C(=O)NC(CC(N)=O)C(=O)NCC2C(=O)NC3CC/C=C\C=C(\O)CCc4c(O)cc(O)cc4C(C(=O)O)NCC(=O)C(CC(OC4CC(C)(N)C(O)C(C)O4)CC/C=C\COC4=C(OC5OC(CO)C(O)C(O)C5OC5CC(C)(N)C(O)C(C)O5)C(=CC2C=C4)OC/C=C\CCC1O)NCC3=O (stereo not shown) [PA-42867], the ED50 [5] is given as 2.31 mg/kg, the “activity against gram-positive bacteria” value [6] is given as “potent activity” and the MIC [7] is given as 0.78 microgram/ml.

For CN[C@H](CC(C)C)C(=O)N[C@H]1C(=O)N[C@@H](CC(N)=O)C(=O)N[C@H]2C(=O)N[C@H]3C(=O)N[C@H](C(=O)N[C@H](C(=O)O)c4cc(O)cc(O)c4-c4cc3ccc4O)[C@H](O)c3ccc(c(Cl)c3)Oc3cc2cc(c3O[C@@H]2O[C@H](CO)[C@@H](O)[C@H](O)[C@H]2O[C@H]2C[C@](C)(N)[C@H](O)[C@H](C)O2)Oc2ccc(cc2Cl)[C@H]1O [vancomycin], the MIC [1] is listed as 0.25 microgram/ml, the MIC [8] is listed as 2 microgram/ml and the MIC [2] is listed as 2 microgram/ml. For the same molecule, the MIC [3] was 2 microgram/ml, the MIC [4] was 1 microgram/ml and the MIC [9] was 2 microgram/ml.

For des-methyl-balhimycin, the MIC [10] is given as 0.1 microgram/ml, the MIC [11] is given as 0.1 microgram/ml and the MIC [12] is given as 0.05 microgram/ml. For the same molecule, the MIC [13] was 0.05 microgram/ml.

For COC(C)C(NC(=O)C1CCCN1C)C1OC(SC)C(O)C(O)C1O (stereo not shown) [BU-2545, 7-O-methyl-4′-de-n-propyllincomycin], the antibacterial activity [14] is listed as “exhibits antibacterial activity”.

For “avoparcin alpha, 49-chloro-4B,50-di-O-alpha-D-mannopyranosyl- [Galacardin A]”, the “in vivo efficacy (ED50)” value [15] is given as 19.0 mg/kg, the MIC [16] is given as 25.0 microgram/ml and the MIC [17] is given as 6.25 microgram/ml. The MIC [18] was 6.25 microgram/ml.

For CN[C@H](CC(C)C)C(=O)N[C@H]1C(=O)N[C@@H](CC(N)=O)C(=O)N[C@H]2C(=O)NC3C(=O)N[C@@H](C[C@H](OC4C[C@@H](C)C(O)C(C)O4)c4ccc(c(Cl)c4)Oc4cc2cc(c4OC2OC(CO)C(O)C(O)C2O)OC2CC=C(C=C2Cl)C1O)C(=O)N[C@H](C(=O)O)c1cc(O)cc(O)c1-c1cc3ccc1O (stereo partly shown) [S-3662], the therapeutic efficacy [19] is given as “showed therapeutic efficacy”, the ED50 [20] is given as 0.39 mg/kg and the ED50 [21] is given as 2.63 mg/kg. For the same molecule, the ED50 [22] was 0.95 mg/kg, the ED50 [23] was 0.49 mg/kg and the “activity compared with vancomycin” value [24] was “superior to vancomycin”.

For “vancomycin,22-O-(3-amino-2,3,6-trideoxy-3-C-methyl-alpha-D-arabino-hexopyranosyl)-2′-O-de(3-amino-2,3,6-trideoxy-3-C-methyl-alpha-L-lyxoyranosyl)-10,19-didechloro-2′-O-(6-deoxy-alpha-D-talopyranosyl)- [MM-49721]”, the MIC [25] is listed as 2 microgram/ml and the “activity against gram-positive bacteria” value [6] is listed as “good activity”.

For C[C@@H]1CN(c2c(F)c(N)c3c(=O)c(C(=O)O)cn(C4CC4)c3c2F)C[C@H](C)N1 [sparfloxacin], the in vitro activity [26] is listed as “highly active”.
